Test results reported in patent US20260242335A1, “HETEROCYCLOALKYL BETA-HYDROXY ALKYL AMINES FOR USE IN THE TREATMENT OF HYPERGLYCAEMIA AND DISORDERS CHARACTERISED BY HYPERGLYCAEMIA” (ATROGI AB, priority 2023, published 2026).
Where a name gives a salt, the structure may show the parent alone.

How the values were obtained:
L6-myotubes [1] = test: Glucose uptake (3H-2-deoxyglucose) in differentiated L6-myotubes, compared to isoproterenol; type: cell-based; conditions: compound at 10 μM vs isoproterenol at 10 μM, read-out: Biological example 1: glucose uptake activity compared to that of isoproterenol
Experimental: (§1) L6-myoblasts were grown in Dulbecco's Modified Eagle's Medium (DMEM) containing 1 g/L glucose supplemented with 10% fetal bovine serum, 2 mM L-Glutamine, 50 U/mL penicillin, […] streptomycin and 10 mM HEPES. Cells were plated at 1×10^5 cells per mL in 24-well plates. After reaching 90% confluence the cells were grown in medium containing 2% FBS for 7 days where upon cells differentiated into myotubes.
Differentiated L6-myotubes were serum-starved overnight in medium containing 0.5% fatty-acid free BSA and stimulated with an agonist, with a final concentration of 1×10^−5 M. After 1 h 40 min the cells were washed with warm glucose free medium or PBS twice and another portion of agonist was added to the glucose free medium. After 20 min the cells were exposed to 50 nM ^3H-2-deoxyglucose for another 10 min before washed in ice cold glucose free medium or PBS three times and lysed in 400 μL/well 0.2 M NaOH for 1 h at 60° C. The cell lysate was mixed with 4 mL scintillation buffer (Emulsifier Safe, Perkin Elmer) and the radioactivity was detected in a p-counter (Tri-Carb 4810TR, Perkin Elmer). The activity for each compound is compared to that of isoproterenol.

L6-myotubes [2] = test: Measurement of intracellular cAMP levels (alpha screen cAMP kit) in differentiated cells, compared to isoproterenol; type: cell-based; conditions: 0.25 h, compound at 10 μM vs isoproterenol at 10 μM, 15 min stimulation, read-out: Biological example 2: intracellular cAMP level activity compared to that of isoproterenol
Experimental: as §1
Differentiated cells were serum-starved overnight and stimulated with an agonist, final concentration 1×10^−5 M, for 15 min in stimulation buffer (HBSS supplemented with 1% BSA, 5 mM HEPES and 1 mM IBMX, pH 7.4). The medium was aspirated and 100 μL of 95% EtOH was added to each well of the 24-well plate and cells were kept at −20° C. overnight. The EtOH was allowed to evaporate and 500 μL of lysis buffer (1% BSA, 5 mM HEPES and 0.3% Tween-20, pH 7.4) was added to each well. The plate was kept at −80° C. for 30 min and then at −20° C. until the day of detection when the samples were thawed. Intracellular cAMP levels were detected using an alpha screen cAMP kit (6760635D from Perkin Elmer). The activity for each compound is compared to that of isoproterenol.

CC(C)(C[C@@H]1CCCNC1)NC[C@H](O)c1cncc(F)c1 [Example 12, (R)-1-(5-Fluoropyridin-3-yl)-2-((2-methyl-1-((S)-piperidin-3-yl)-propan-2-yl)amino)ethan-1-ol]
Emax at 10 µM (L6-myotubes [1]): > 75% | Emax at 10 µM (L6-myotubes [2]): < 25%

CC(C)(C[C@@H]1CCCN(C(=O)C(F)(F)F)C1)NC[C@H](O)c1cccc(F)c1 [Example 6, 2,2,2-Trifluoro-1-((S)-3-(2-(((R)-2-(3-fluorophenyl)-2-hydroxyethyl)-amino)-2-methylpropyl)piperidin-1-yl)ethan-1-one]
Emax at 10 µM (L6-myotubes [1]): > 75% | Emax at 10 µM (L6-myotubes [2]): < 25%

CC(C)(CC1CCNCC1)NC[C@H](O)c1cccc(F)c1 [Example 29, (R)-1-(3-Fluorophenyl)-2-((2-methyl-1-(piperidin-4-yl)propan-2-yl)-amino)ethan-1-ol]
Emax at 10 µM (L6-myotubes [1]): > 75% | Emax at 10 µM (L6-myotubes [2]): < 25%

CC(C)(C[C@H]1CCC(=O)NC1)NC[C@H](O)c1cccc(F)c1 [Example 38, (R)-5-(2-(((R)-2-(3-Fluorophenyl)-2-hydroxyethyl)amino)-2-methyl-propyl)piperidin-2-one hydrochloride]
Emax at 10 µM (L6-myotubes [1]): > 75% | Emax at 10 µM (L6-myotubes [2]): < 25%

CC(C)(C[C@@H]1CCCN(C(=O)OC(C)(C)C)C1)NC[C@H](O)c1cccc(F)c1 [Example 1, tert-Butyl (S)-3-(2-(((R)-2-(3-fluorophenyl)-2-hydroxyethyl)amino)-2-methypropyl)piperidine-1-carboxylate acetate]
Emax at 10 µM (L6-myotubes [1]): > 75% | Emax at 10 µM (L6-myotubes [2]): > 75%

COC1CCN(CC(C)(C)NC[C@H](O)c2cccc(F)c2)CC1 [Example 85, (R)-1-(3-Fluorophenyl)-2-((1-(4-methoxypiperidin-1-yl)-2-methyl-propan-2-yl)amino)ethan-1-ol dihydrochloride]
Emax at 10 µM (L6-myotubes [1]): > 75% | Emax at 10 µM (L6-myotubes [2]): < 25%

CNC(=O)N1CCC(CC(C)(C)NC[C@H](O)c2cncc(F)c2)CC1 [Example 51, (R)-4-(2-((2-(5-Fluoropyridin-3-yl)-2-hydroxyethyl)amino)-2-methyl-propyl)-N-methylpiperidine-1-carboxamide dihydrochloride]
Emax at 10 µM (L6-myotubes [1]): 50 to 75% | Emax at 10 µM (L6-myotubes [2]): < 25%

CC(=O)N1CC[C@@H](CC(C)(C)NC[C@H](O)c2cncc(F)c2)C1 [Example 70, 1-((S)-3-(2-(((R)-2-(5-Fluoropyridin-3-yl)-2-hydroxyethyl)amino)-2-methylpropyl)pyrrolidin-1-yl)ethan-1-one]
Emax at 10 µM (L6-myotubes [1]): > 75% | Emax at 10 µM (L6-myotubes [2]): < 25%

CC(C)(C[C@@H]1CCCN(S(C)(=O)=O)C1)NC[C@H](O)c1cncc(F)c1 [Example 14, (R)-1-(5-Fluoropyridin-3-yl)-2-((2-methyl-1-((S)-1-(methylsulfonyl)-piperidin-3-yl)propan-2-yl)amino)ethan-1-ol hydrochloride]
Emax at 10 µM (L6-myotubes [1]): 50 to 75% | Emax at 10 µM (L6-myotubes [2]): < 25%

CC(C)(C[C@@H]1CCNC1)NC[C@H](O)c1cccc(F)c1 [Example 65, (R)-1-(3-Fluorophenyl)-2-((2-methyl-1-((S)-pyrrolidin-3-yl)propan-2-yl)amino)ethan-1-ol]
Emax at 10 µM (L6-myotubes [1]): > 75% | Emax at 10 µM (L6-myotubes [2]): > 75%

CC(C)(CC1CCN(C(=O)C(C)(C)C)CC1)NC[C@H](O)c1cncc(F)c1 [Example 47, (R)-1-(4-(2-((2-(5-Fluoropyridin-3-yl)-2-hydroxyethyl)amino)-2-methylpropyl)piperidin-1-yl)-2,2-dimethylpropan-1-one dihydrochloride]
Emax at 10 µM (L6-myotubes [1]): 50 to 75% | Emax at 10 µM (L6-myotubes [2]): < 25%

CC(=O)N1CCC(CC(C)(C)NC[C@H](O)c2cncc(F)c2)CC1 [Example 34, (R)-1-(4-(2-((2-(5-fluoropyridin-3-yl)-2-hydroxyethyl)amino)-2-methylpropyl)piperidin-1-yl)ethan-1-one dihydrochloride]
Emax at 10 µM (L6-myotubes [1]): 50 to 75% | Emax at 10 µM (L6-myotubes [2]): < 25%

CC(C)(C[C@H]1CCCOC1)NC[C@H](O)c1cccc(F)c1 [Example 83, (R)-1-(3-Fluorophenyl)-2-((2-methyl-1-((R)-tetrahydro-2H-pyran-3-yl)propan-2-yl)amino)ethan-1-ol]
Emax at 10 µM (L6-myotubes [1]): > 75% | Emax at 10 µM (L6-myotubes [2]): < 25%
